# How the values were obtained:
# Experiment in all cases: relative viability (nuclei count vs DMSO), 5 days (fraction); higher = more cells survive
# [1] = compound: C/C(=N\NC(=S)N1CCC1)/C2=CC=CC=N2 + CCNC(=O)c1noc(-c2cc(C(C)C)c(O)cc2O)c1-c1ccc(CN2CCOCC2)cc1 [Luminespib] (partner 0.01 µM)
# Outline: (§1)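 Each reported value is a median over duplicate plates. It expresses relative viability: treated-well nuclei count divided by vehicle-well nuclei count. Lung cancer cell lines in 1536-well plates were dosed by pin tool a day after seeding, alone with one drug or with a fixed anchor-drug dose plus five library-drug doses (not always all listed) in √10 steps, and nuclei were counted after 5 days.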
# [2] = compound: C/C(=N\NC(=S)N1CCC1)/C2=CC=CC=N2 + COc1cc2c(Oc3ccc(NC(=O)C4(C(=O)Nc5ccc(F)cc5)CC4)cc3F)ccnc2cc1OCCCN1CCOCC1 [Foretinib] (partner 0.25 µM)
# Outline: as §1
# [3] = compound: C/C(=N\NC(=S)N1CCC1)/C2=CC=CC=N2 + Cc1nc(Nc2ncc(C(=O)Nc3c(C)cccc3Cl)s2)cc(N2CCN(CCO)CC2)n1 [Dasatinib] (partner 0.075 µM)
# Outline: as §1
# [4] = compound: C/C(=N\NC(=S)N1CCC1)/C2=CC=CC=N2 + Nc1ncn([C@H]2C[C@H](O)[C@@H](CO)O2)c(=O)n1 [Decitabine] (partner 2 µM)
# Outline: as §1
Cell Line,relative viability ([1]; first compound 0.05 µM),relative viability ([1]; first compound 0.1581 µM),relative viability ([1]; first compound 0.5 µM),relative viability ([1]; first compound 1.581 µM),relative viability ([1]; first compound 5 µM),relative viability ([2]; first compound 0.05 µM),relative viability ([2]; first compound 0.1581 µM),relative viability ([2]; first compound 0.5 µM),relative viability ([2]; first compound 1.581 µM),relative viability ([2]; first compound 5 µM),relative viability ([3]; first compound 0.05 µM),relative viability ([3]; first compound 0.1581 µM),relative viability ([3]; first compound 0.5 µM),relative viability ([3]; first compound 1.581 µM),relative viability ([3]; first compound 5 µM),relative viability ([4]; first compound 0.05 µM),relative viability ([4]; first compound 0.1581 µM),relative viability ([4]; first compound 0.5 µM),relative viability ([4]; first compound 1.581 µM),relative viability ([4]; first compound 5 µM)
LOU-NH91,0.257,0.293,0.274,0.185,0.264,0.519,0.447,0.507,0.469,0.375,0.35,0.37,0.27,0.367,0.382,0.625,0.626,0.579,0.462,0.495
LU99A,0.15,0.116,0.152,0.164,0.148,0.276,0.189,0.181,0.186,0.189,0.131,0.16,0.114,0.106,0.155,0.222,0.624,0.171,0.162,0.173
LXF-289,0.169,0.132,0.177,0.153,0.126,0.422,0.31,0.294,0.311,0.121,0.0597,0.064,0.0627,0.0541,0.0561,0.274,0.356,0.198,0.236,0.158
NCI-H23,0.151,0.149,0.204,0.206,0.204,0.226,0.262,0.196,0.181,0.209,0.128,0.142,0.177,0.121,0.142,0.178,0.2,0.161,0.172,0.202
NCI-H322M,0.314,0.327,0.289,0.263,0.309,0.282,0.32,0.31,0.295,0.336,0.183,0.309,0.263,0.247,0.282,0.353,0.413,0.418,0.47,0.455
NCI-H358,0.0782,0.118,0.144,0.108,0.0871,0.0918,0.107,0.0747,0.0879,0.107,0.0836,0.0975,0.102,0.0651,0.092,0.114,0.12,0.0978,0.0977,0.0971
NCI-H441,0.205,0.158,0.251,0.181,0.164,0.314,0.236,0.238,0.174,0.167,0.143,0.15,0.159,0.108,0.156,0.185,0.163,0.17,0.134,0.126
NCI-H460,0.0193,0.0163,0.025,0.0173,0.0171,0.1,0.06,0.0602,0.0533,0.0171,0.0259,0.0347,0.0269,0.0294,0.0151,0.0547,0.04,0.0328,0.0221,0.0138
NCI-H520,0.194,0.21,0.199,0.21,0.235,0.153,0.162,0.159,0.17,0.184,0.175,0.117,0.162,0.178,0.166,0.161,0.167,0.145,0.159,0.17
NCI-H596,0.433,0.673,0.246,0.222,0.235,0.461,0.725,0.208,0.199,0.272,0.234,0.29,0.245,0.224,0.225,0.887,0.408,0.335,0.317,0.418
NCI-H647,0.0621,0.051,0.0851,0.0853,0.0804,0.128,0.0812,0.172,0.132,0.105,0.0543,0.0651,0.0453,0.051,0.0532,0.0887,0.123,0.117,0.0803,0.0922
NCI-H650,0.177,0.2,0.198,0.173,0.2,0.222,0.238,0.234,0.242,0.194,0.19,0.212,0.191,0.216,0.177,0.169,0.192,0.187,0.186,0.157
NCI-H661,0.246,0.221,0.212,0.202,0.219,0.294,0.307,0.244,0.264,0.24,0.196,0.223,0.197,0.2,0.212,0.274,0.26,0.218,0.236,0.232
NCI-H727,0.249,0.337,0.294,0.346,0.34,0.225,0.231,0.227,0.227,0.22,0.204,0.24,0.236,0.242,0.274,0.406,0.366,0.394,0.398,0.466
NCI-H838,0.111,0.15,0.132,0.125,0.14,0.259,0.255,0.216,0.217,0.18,0.203,0.198,0.223,0.201,0.187,0.258,0.261,0.265,0.192,0.2
NCI-H1355,0.176,0.179,0.192,0.167,0.173,0.282,0.378,0.22,0.197,0.162,0.198,0.194,0.187,0.168,0.15,0.206,0.207,0.189,0.172,0.157

# — the supplement of paper PMC10307832
